Consider 11 molecules from ChEMBL document CHEMBL1201862, “PubChem BioAssay data set” (2004).

Test systems include K562; NCI-H460; A549; SR; SW-620; OVCAR-8; A498; Hs-578T; T47D; KM12; SK-MEL-5; UO-31; HCT-15; SNB-75; LOX IMVI; MDA-MB-231; TK-10; OVCAR-5; NCI-H23.
Assay in all cases: NCI tumour cell line growth inhibition, 48 h

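Grown in 96-well plates, cells were treated for 48 hours with each compound at five concentrations. Insufficient inhibition: endpoint recorded as highest concentration tested. Abbreviation: GI50, concentration required for 50% inhibition of growth.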 Calls of active or inactive are those of the source. Cut-off read from the data, not from the text of the source: active = GI50 up to about 1.1 µM and inactive = higher.

Regarding `Cc1csc(-c2cn(C)c3c2C(=O)C(=N)C=C3O)n1`, the GI50 with K562 is 6.28 µM (inactive); in the test on NCI-H460 it was 3.97 µM (inactive); in the test on A549, 2.65 µM (inactive); in the test on SR, 2.52 µM (inactive); with SW-620, 9.73 µM (inactive); in the test with OVCAR-8, 6.34 µM (inactive). Also, the GI50 is 12.2 µM (inactive) with A498; 3.86 µM (inactive) in the test with Hs-578T; 17.7 µM (inactive) in the test on T47D; 11.2 µM (inactive) in the test with KM12; 1.53 µM (inactive) in the test on SK-MEL-5; 5.9 µM (inactive) in the test with UO-31. Besides, the GI50 was 6.59 µM with HCT-15; 1.8 µM (inactive) in the test with SNB-75; 3.52 µM (inactive) with LOX IMVI; 51.6 µM (inactive) with MDA-MB-231; 46.1 µM (inactive) in the test on TK-10; 42.4 µM (inactive) in the test with OVCAR-5. In addition, the GI50 with NCI-H23 was 2.79 µM (inactive).

As to `CCOC(=O)c1cnc(N(C)C)nc1SC(=N)N`, the GI50 with K562 was > 100 µM (inactive); with NCI-H460 it was > 100 µM (inactive); with A549, > 100 µM (inactive); in the test with SR, 35.6 µM (inactive); in the test on SW-620 it was > 100 µM (inactive); in the test on OVCAR-8, > 100 µM (inactive). Further, the GI50 in the test on A498 was > 100 µM (inactive); with Hs-578T it was > 100 µM (inactive); in the test with T47D, > 100 µM (inactive); in the test on KM12 it was > 100 µM (inactive); in the test on SK-MEL-5, > 100 µM (inactive); in the test on HCT-15, above 100 µM. The GI50 with SNB-75, in the test with LOX IMVI, in the test with MDA-MB-231, with TK-10, in the test on OVCAR-5 and in the test on NCI-H23 was > 100 µM (inactive) throughout.

For the molecule `COC1(OC)C2C=CC1C([C@](C)(N)CO)C2` (stereo partly specified), the GI50 in the test on K562, in the test on NCI-H460, in the test with A549, in the test on SR, in the test with SW-620 and in the test with OVCAR-8 was > 100 µM (inactive) each time. Moreover, the GI50 in the test on A498, with Hs-578T, in the test with T47D, in the test on KM12, in the test on SK-MEL-5 and with UO-31 was > 100 µM (inactive) throughout. For the same molecule, the GI50 with SNB-75, in the test on MDA-MB-231, in the test with TK-10, in the test on OVCAR-5 and with NCI-H23 was > 100 µM (inactive) in each case.

In the case of `O=C1c2ccccc2-c2nc(/C=C/c3ccccc3)cc3c2c1nc1ccccc13`, the GI50 is 3.47 µM (inactive) in the test on K562; 30.6 µM (inactive) in the test with A549; 1.8 µM (inactive) in the test with SR; 20 µM (inactive) with SW-620; 24.3 µM (inactive) with OVCAR-8; 60.1 µM (inactive) with A498. Further, the GI50 in the test with Hs-578T was 12.3 µM (inactive); in the test with T47D, 48.8 µM (inactive); in the test on KM12, 18.5 µM (inactive); with SK-MEL-5, 2.32 µM (inactive); with UO-31, 29.6 µM (inactive); with HCT-15, 2.52 µM. Moreover, the GI50 with SNB-75 is 17.8 µM (inactive); in the test with MDA-MB-231 it was 24.4 µM (inactive); with TK-10, 81.8 µM (inactive); in the test on OVCAR-5 it was > 100 µM (inactive); in the test with NCI-H23 it was 12.1 µM (inactive).

For `N#CC12C(=O)N3C(=NC(c4ccco4)NC3c3ccco3)C1(C#N)C(c1ccco1)NC1=C2CCCC1` (stereo unspecified), the GI50 in the test on K562, in the test with NCI-H460, in the test on A549, in the test with SR, in the test on SW-620 and with OVCAR-8 was > 100 µM (inactive) in each case. In addition, the GI50 in the test on A498, in the test on Hs-578T, in the test with T47D, with KM12, in the test on SK-MEL-5 and with UO-31 was > 100 µM (inactive) each time. In addition, the GI50 with HCT-15 is above 100 µM; in the test with LOX IMVI it was > 100 µM (inactive); with MDA-MB-231, > 100 µM (inactive); with TK-10, > 100 µM (inactive); in the test on OVCAR-5 it was > 100 µM (inactive); in the test on NCI-H23, > 100 µM (inactive).

As for `NC(CCCCNc1ccn(C2OC(CO)C(O)C2O)c(=O)n1)C(=O)O` (stereo unspecified), the GI50 is > 100 µM (inactive) in the test on K562; > 100 µM (inactive) in the test with NCI-H460; 50.5 µM (inactive) in the test on A549; > 100 µM (inactive) in the test with SR; > 100 µM (inactive) in the test on SW-620; 73.1 µM (inactive) in the test on OVCAR-8. Further, the GI50 in the test on A498, in the test on Hs-578T, in the test with T47D, in the test with KM12, in the test on SK-MEL-5 and in the test on UO-31 was > 100 µM (inactive) in each case. Also, the GI50 in the test on HCT-15 is 74.5 µM; with SNB-75, > 100 µM (inactive); in the test with LOX IMVI it was > 100 µM (inactive); in the test on MDA-MB-231, > 100 µM (inactive); with TK-10, > 100 µM (inactive); in the test on OVCAR-5 it was > 100 µM (inactive).

As for `CNc1ccc2nc(-c3ccc(OC(=O)N(C)C)cc3)cn2c1`, the GI50 in the test with K562 is 21 µM (inactive); with NCI-H460 it was 17.5 µM (inactive); with A549 it was 16.9 µM (inactive); in the test on SR, 19.1 µM (inactive); in the test on SW-620, 22.8 µM (inactive); in the test with OVCAR-8, 15.7 µM (inactive). Besides, the GI50 in the test on A498 is 17.5 µM (inactive); in the test on Hs-578T, 41.2 µM (inactive); with T47D, 22.2 µM (inactive); in the test with KM12 it was 17.1 µM (inactive); with SK-MEL-5, 23.1 µM (inactive); with UO-31, 21.1 µM (inactive). Also, the GI50 in the test with HCT-15 was 19.5 µM; in the test on LOX IMVI it was 17.7 µM (inactive); in the test on MDA-MB-231, 17.1 µM (inactive); with TK-10, 17.9 µM (inactive); in the test on OVCAR-5 it was 22.9 µM (inactive); in the test with NCI-H23 it was 21.2 µM (inactive).

Consider `O=S(=O)(O)c1ccc(Nc2ccnc3cc(Cl)ccc23)cc1`, for which the GI50 in the test on K562, in the test with A549, with SR, in the test with SW-620, in the test on OVCAR-8 and with A498 was > 100 µM (inactive) each time. The GI50 was > 100 µM (inactive) in the test with Hs-578T; > 100 µM (inactive) in the test on T47D; > 100 µM (inactive) in the test with KM12; > 100 µM (inactive) in the test on SK-MEL-5; > 100 µM (inactive) in the test on UO-31; above 100 µM in the test with HCT-15. For the same molecule, the GI50 with SNB-75, in the test on LOX IMVI, in the test on MDA-MB-231, with TK-10, in the test on OVCAR-5 and in the test with NCI-H23 was > 100 µM (inactive) throughout.

On to `N#CC(C#N)=Cn1c(=S)[nH]c2ccccc21`, for which the GI50 in the test on K562, in the test with NCI-H460, in the test with A549, in the test on SR, in the test with SW-620 and in the test with OVCAR-8 was > 100 µM (inactive) in each case. The GI50 in the test on A498, in the test on Hs-578T, in the test on T47D, in the test with KM12, in the test with SK-MEL-5 and with UO-31 was > 100 µM (inactive) throughout. Also, the GI50 with SNB-75 was 50.8 µM (inactive); in the test with LOX IMVI it was > 100 µM (inactive); in the test on MDA-MB-231 it was > 100 µM (inactive); with TK-10 it was > 100 µM (inactive); in the test on OVCAR-5, > 100 µM (inactive); in the test on NCI-H23, > 100 µM (inactive).

As for `O=C1Oc2ccccc2N/C1=C/C(=O)c1ccc(Cl)cc1`, the GI50 was 37.1 µM (inactive) in the test on K562; > 100 µM (inactive) in the test on NCI-H460; 60.3 µM (inactive) in the test with A549; 39.4 µM (inactive) in the test with SR; 42.5 µM (inactive) in the test on OVCAR-8; > 100 µM (inactive) in the test with A498. In addition, the GI50 was > 100 µM (inactive) in the test with Hs-578T; 47.5 µM (inactive) in the test on T47D; > 100 µM (inactive) in the test on KM12; 38.6 µM (inactive) in the test with SK-MEL-5; 73.5 µM (inactive) with UO-31; above 100 µM in the test with HCT-15. For the same molecule, the GI50 in the test on SNB-75, in the test on MDA-MB-231, in the test on TK-10, with OVCAR-5 and with NCI-H23 was > 100 µM (inactive) each time.

In the case of `Cc1cc(O)c2c(c1O)C(=O)C1=C(C2=O)C(=O)C2C(O)C1C1C(O)CC(O)=C3C(=O)c4c(O)cc(C)c(O)c4C(=O)C321` (stereo unspecified), the GI50 was 0.506 µM (active) in the test with K562; 1.46 µM (inactive) with NCI-H460; 0.693 µM (active) in the test with A549; 2.36 µM (inactive) in the test on SR; 1.45 µM (inactive) with SW-620; 1.06 µM (active) in the test on OVCAR-8. Further, the GI50 was 1.27 µM (inactive) in the test on A498; 0.553 µM (active) in the test with Hs-578T; 1.24 µM (inactive) with T47D; 0.697 µM (active) in the test on KM12; 1.65 µM (inactive) in the test on SK-MEL-5; 2.04 µM with HCT-15. For the same molecule, the GI50 with SNB-75 is 1.03 µM (active); in the test on LOX IMVI, 1.57 µM (inactive); in the test with MDA-MB-231 it was 2.64 µM (inactive); in the test on TK-10, 3.14 µM (inactive); with OVCAR-5 it was 3.62 µM (inactive); in the test with NCI-H23, 2.73 µM (inactive).
